# From US20250120425A1, “Combinations of Ketogenic Supplements for Rapid and Sustained Blood Ketone Levels in Dieters and Patients” (priority 2021, published 2025)
# Assays:
# [1] = Blood βHB levels after single oral administration of ketogenic compounds in human subjects
# Procedure: Table 1 is data depicting blood BHB levels of 4 male subjects with an average weight of 76 kg in a fasted state that received 5.5 grams of buffered (D) βHB together with 4.5 grams of (D)-1,3BD, 328 mg of Na+ in the form of NaHCO3 and 500 mg of K+ in the form of KHCO3, at 15, 30, 45 and 60 minutes after oral administration. […] That compound is an ester formed by reacting (D)-3-hydroxybutyrate and (D)-1,3-butanediol.
# Table 2 is data depicting blood βHB levels after a single administration of 5.5 grams of buffered (D) βHB together with 4.5 grams of (D)-1,3BD, 328 mg of Na+ in the form of NaHCO3 and 500 mg of K+ in the form of KHCO3 in a fasted 70 kg subject who was following a strict ketogenic diet and keto adapted due at 15, 30, 45 and 60 minutes after oral administration.
# Table 3 is data depicting blood BHB after a single administration of 10 grams of buffered (D) βHB acid with 328 mg of Na+ in the form of NaHCO3 and 500 mg of K+ in the form of KHCO3 in a fasted 75 kg subject and two fasted 65 kg female subjects at 15, 30, 45, 60 and 90 minutes after administration.
# FIG. […] The total dose of 60 grams was administered 3 hours after a meal. […] Those esters are typically administered after an overnight fast on an empty stomach. […] FIG. 5 also includes blood samples for 2 esters of (D)-BHB. The first was from HVMN and consisted of […] of ester (2 commercially available 30 gram bottles). The second was the ester KE4 from KetoneAid and contained 60 net grams (2 commercially available 30 gram bottles). The choice of 60 grams of active ester was based on dosing protocols for elite athletes in the paper “Nutritional Ketosis Alters Fuel Preference and Thereby Endurance in Elite Athletes” Cell Metabolism Cox et al. 2016.
# [2] = human, in vivo; cited from earlier work
smiles,measurement,setting,value
"C[C@@H](O)CC(=O)O [10 g HB, (D)-beta-hydroxybutyrate]","effectiveness at raising blood levels of (D)-βHB, pure (D) form versus racemic","[1]; human, in vivo",more than twice as effective
C[C@@H](O)CCOC(=O)C[C@@H](C)O [(D)-3-hydroxybutyl-(D)-3-hydroxybutyrate],average serum increase for βHB,[2],1.0 mmol/10 grams
"CC(O)CCO (stereo not shown) [(D)-1,3BD, (D)-1,3-butanediol]",serum level of (D)-beta-hydroxybutyrate reached,"[1]; 10 grams, 75 kg person",0.9 mmol
same,effectiveness at raising serum levels of (D)-beta-hydroxybutyrate,[1]; (D) enantiomer compared with the racemic form,~3 times
same,mean blood BHB level,"[1]; Table 4: 10 grams single administration, 72 kg fasted subject, T + 0",0.0
same,mean blood BHB level,"[1]; Table 4: 10 grams, 72 kg fasted male, +15 Min",0.6
same,mean blood BHB level,"[1]; Table 4: 10 grams, 72 kg fasted male, +30 Min",0.9
same,mean blood BHB level,"[1]; Table 4: 10 grams, 72 kg fasted male, +45 Min",0.9
same,mean blood BHB level,"[1]; Table 4: 10 grams, 72 kg fasted male, +60 Min",0.5
same,mean blood BHB level,"[1]; Table 4: 10 grams, 72 kg fasted male, +90 Min",0.3
same,"effectiveness at raising blood levels of (D)-βHB, pure (D) form versus racemic",[1]; for any given weight,more than twice as effective
same,ketogenic power compared with the free acid (D)-βHB,[1]; gram to gram basis,"the liver. On a gram to gram basis, it is a more powerful"
same,ketogenic power relative to the ketone ester,[1]; gram to gram basis,~90% as powerful as the previously mentioned ketone ester
